According to US20130267513A1, “PYRAZOLOPYRIDINES AS INHIBITORS OF THE KINASE LRRK2” (priority 2010, published 2013):

Molecular target: T1, LRRK2 (Homo sapiens, UniProt Q5S007)
Assay: LRRK2 KI determination
Type: biochemical
Conditions: not given
Target sequence in this assay (Q5S007 970-2527): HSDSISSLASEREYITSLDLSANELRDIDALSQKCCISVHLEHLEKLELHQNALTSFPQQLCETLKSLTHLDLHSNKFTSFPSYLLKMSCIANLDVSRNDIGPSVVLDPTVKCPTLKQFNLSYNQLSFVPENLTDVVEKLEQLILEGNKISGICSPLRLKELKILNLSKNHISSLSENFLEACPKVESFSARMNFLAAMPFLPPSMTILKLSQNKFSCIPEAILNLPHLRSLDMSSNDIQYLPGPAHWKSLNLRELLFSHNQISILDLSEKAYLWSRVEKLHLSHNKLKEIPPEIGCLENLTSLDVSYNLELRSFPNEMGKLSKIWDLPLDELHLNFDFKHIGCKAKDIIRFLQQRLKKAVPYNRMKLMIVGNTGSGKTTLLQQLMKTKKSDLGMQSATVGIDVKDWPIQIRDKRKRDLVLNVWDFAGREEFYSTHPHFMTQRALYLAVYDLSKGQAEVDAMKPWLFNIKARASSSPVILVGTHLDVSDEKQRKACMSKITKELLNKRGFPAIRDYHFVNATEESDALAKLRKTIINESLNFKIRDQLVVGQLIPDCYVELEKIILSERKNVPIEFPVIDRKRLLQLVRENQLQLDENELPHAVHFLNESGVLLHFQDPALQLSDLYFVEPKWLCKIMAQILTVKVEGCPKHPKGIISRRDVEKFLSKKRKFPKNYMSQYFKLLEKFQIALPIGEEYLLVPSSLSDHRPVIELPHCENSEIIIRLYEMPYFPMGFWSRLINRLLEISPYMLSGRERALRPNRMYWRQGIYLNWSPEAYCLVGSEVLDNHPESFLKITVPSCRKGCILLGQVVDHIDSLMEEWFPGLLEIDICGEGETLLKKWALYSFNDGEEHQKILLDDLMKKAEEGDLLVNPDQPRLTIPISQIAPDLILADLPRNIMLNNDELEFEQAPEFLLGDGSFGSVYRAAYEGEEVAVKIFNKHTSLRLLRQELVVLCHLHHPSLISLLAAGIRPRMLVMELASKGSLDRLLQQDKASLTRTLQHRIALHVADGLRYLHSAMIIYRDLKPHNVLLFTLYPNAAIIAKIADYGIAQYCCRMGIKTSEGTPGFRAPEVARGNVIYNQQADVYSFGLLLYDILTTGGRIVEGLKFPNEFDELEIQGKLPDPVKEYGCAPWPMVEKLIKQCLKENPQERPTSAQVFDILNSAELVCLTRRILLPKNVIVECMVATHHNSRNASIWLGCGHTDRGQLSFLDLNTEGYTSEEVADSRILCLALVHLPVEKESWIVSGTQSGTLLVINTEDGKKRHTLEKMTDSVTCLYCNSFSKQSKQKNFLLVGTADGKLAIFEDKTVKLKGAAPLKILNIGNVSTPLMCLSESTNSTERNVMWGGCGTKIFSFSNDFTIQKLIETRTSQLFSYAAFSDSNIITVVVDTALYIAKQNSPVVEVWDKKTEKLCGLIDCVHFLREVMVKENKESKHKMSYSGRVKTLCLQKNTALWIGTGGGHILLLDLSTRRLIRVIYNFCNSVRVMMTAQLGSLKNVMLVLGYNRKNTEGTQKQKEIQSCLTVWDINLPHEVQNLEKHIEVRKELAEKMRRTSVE

Ki [µM]	Compound
< 0.1	Cc1cc2[nH]nc(-c3ccnc(N4CCOCC4)c3)c2c(OC2CCOCC2)n1 [Example 22, 4-(4-(6-Methyl-4-(tetrahydro-2H-pyran-4-yloxy)-1H-pyrazolo[4,3-c]pyridin-3-yl)pyridin-2-yl)morpholine]
< 0.1	Cc1cc2[nH]nc(-c3cc(C(F)(F)F)ccn3)c2c(NC2CCOCC2)n1 [Example 18, 6-methyl-N-(tetrahydro-2H-pyran-4-yl)-3-(4-(trifluoromethyl)pyridin-2-yl)-1H-pyrazolo[4,3-c]pyridin-4-amine]
< 0.1	COc1nc(C)cc2[nH]nc(-c3cnn(C4CCOCC4)c3)c12 [Example 25, 4-Methoxy-6-methyl-3-(1-(tetrahydro-2H-pyran-4-yl)-1H-pyrazol-4-yl)-1H-pyrazolo[4,3-c]pyridine]
< 0.1	Cc1cc2[nH]nc(-c3cc(C(F)(F)F)ncn3)c2c(NC2CCOCC2)n1 [Example 19, 6-methyl-N-(tetrahydro-2H-pyran-4-yl)-3-(6-(trifluoromethyl)pyrimidin-4-yl)-1H-pyrazolo[4,3-c]pyridin-4-amine]
0.1 to 1	CNC(=O)c1cccc(-c2[nH]nc3cc(C)nc(OC4CCOCC4)c23)c1 [Example 23, N-Methyl-3-(6-Methyl-4-(tetrahydro-2H-pyran-4-yloxy)-1H-pyrazolo[4,3-c]pyridin-3-yl)benzamide]
0.1 to 1	CNC(=O)c1cccc(-c2[nH]nc3cc(C)nc(OC)c23)c1 [Example 21, 3-(4-Methoxy-6-methyl-1H-pyrazolo[4,3-c]pyridin-3-yl)-N-methylbenzamide]
0.1 to 1	Cc1[nH]nc2cc(C3CC3)nc(OC3CCCCC3)c12 [Example 14, 4-(cyclohexyloxy)-6-cyclopropyl-3-methyl-1H-pyrazolo[4,3-c]pyridine]
< 0.1	CCOc1cc(-c2n[nH]c3cc(C)nc(NC4CCOCC4)c23)ncn1 [Example 17, 3-(6-ethoxypyrimidin-4-yl)-6-methyl-N-(tetrahydro-2H-pyran-4-yl)-1H-pyrazolo[4,3-c]pyridin-4-amine]
< 0.1	Cc1cc2[nH]nc(-c3cnn(C4CCOCC4)c3)c2c(OC2CCOCC2)n1 [Example 24, 6-Methyl-3-(1-(tetrahydro-2H-pyran-4-yl)-1H-pyrazol-4-yl)-4-(tetrahydro-2H-pyran-4-yloxy)-1H-pyrazolo[4,3-c]pyridine]
< 0.1	CC(C)n1cc(-c2n[nH]c3cc(C(F)(F)F)nc(OC4CCOCC4)c23)cn1 [Example 15, 3-(1-isopropyl-1H-pyrazol-4-yl)-4-(tetrahydro-2H-pyran-4-yloxy)-6-(trifluoromethyl)-1H-pyrazolo[4,3-c]pyridine]
< 0.1	CC(C)Cn1cc(-c2n[nH]c3cc(C#N)nc(OC4CCOCC4)c23)cn1 [Example 11, 3-(1-isobutyl-1H-pyrazol-4-yl)-4-(tetrahydro-2H-pyran-4-yloxy)-1H-pyrazolo[4,3-c]pyridine-6-carbonitrile]
0.1 to 1	COc1nc(C)cc2[nH]nc(-c3ccnc(N4CCOCC4)c3)c12 [Example 20, 4-(4-(4-methoxy-6-methyl-1H-pyrazolo[4,3-c]pyridin-3-yl)pyridin-2-yl)morpholine]
0.1 to 1	N#Cc1cc2[nH]nc(-c3ccnc(N4CCOCC4)c3)c2c(OC2CCOCC2)n1 [Example 13]
0.1 to 1	Cc1cc2[nH]nc(-c3cc(C(=O)N(C)C)ccn3)c2c(NC2CCOCC2)n1 [Example 16, N,N-dimethyl-2-(6-methyl-4-(tetrahydro-2H-pyran-4-ylamino)-1H-pyrazolo[4,3-c]pyridin-3-yl)isonicotinamide]
< 0.1	Clc1cc2[nH]nc(-c3ccnc(N4CCOCC4)c3)c2c(OC2CCOCC2)n1 [Example 12, 4-(4-(6-chloro-4-(tetrahydro-2H-pyran-4-yloxy)-1H-pyrazolo[4,3-c]pyridin-3-yl)pyridin-2-yl)morpholine]

Molecular target: T1, LRRK2
Assay: LRRK2 protein kinase assay ([γ-33P] ATP, peptide substrate), IC50
Type: biochemical
Set-up: Potency scores (LRRK2 IC50); the wild type has the same borders, PV4873; fused on or other part: GST tag
Conditions: LRRK2 form (G2019S or wild type) not given; read-out: Potency scores (LRRK2 IC50)
Description: All LRRK2 protein kinases were of human origin and were sourced from Invitrogen Corporation (Carlsbad, Calif. 92008 USA) unless otherwise indicated. The active mutant used was recombinant human, catalytic domain (amino acids 970-2527) containing a G2019S mutation, GST-tagged, expressed in insect cells (Invitrogen Cat#PV4881). The wild type used was recombinant human, catalytic domain (amino acids 970-2527) GST—tagged, expressed in insect cells (Invitrogen Cat#PV4873). The kinase dead mutant used was recombinant human, catalytic domain (amino acids 970-2527) containing a D1994A mutation, GST-tagged, expressed in insect cells (Invitrogen Cat#PM4041AE). No special measures were taken to activate any of the kinases.
All assays were carried out at room temperature ([…]) and were linear with respect to time and enzyme concentration under the conditions used. Assays were performed for 180 min in a 96 well format. LRRK2 was present at a concentration of approximately 5 nM.
The enzyme was diluted and assayed in 50 mM Tris-HCl pH7.5, 0.1 mM EGTA, 1 mM DTT and 10 mM MgCl2. The concentration of magnesium chloride in the assay was 10 mM. The [γ-33P] ATP (0.4 μCi/well) was used at 134 uM for G2019S mutant and at 57 μM for the wild type kinase in order to be at Km. The peptide substrate in the assay was […] at 100 μM.
The assays were initiated with Mg/ATP and stopped by the addition of 25 μl/well 50% orthophosphoric acid. Reactions were harvested onto Whatman P81 Unifilter Plates (Fisher Scientific. Loughborough, LE115RG, UK. Cat# FDU-105-020U) using a Tomtec harvester (Tomtec Hamden, Conn. 06514. USA). Plates were counted using a Perkin Elmer Top Count NX7. (Perkin Elmer, Shelton CT 06484-4794 USA)
IC50 values of inhibitors were determined after carrying out assays at 10 different concentrations of each compound in duplicate.
Target sequence in this assay (Q5S007 whole entry G2019S, form open): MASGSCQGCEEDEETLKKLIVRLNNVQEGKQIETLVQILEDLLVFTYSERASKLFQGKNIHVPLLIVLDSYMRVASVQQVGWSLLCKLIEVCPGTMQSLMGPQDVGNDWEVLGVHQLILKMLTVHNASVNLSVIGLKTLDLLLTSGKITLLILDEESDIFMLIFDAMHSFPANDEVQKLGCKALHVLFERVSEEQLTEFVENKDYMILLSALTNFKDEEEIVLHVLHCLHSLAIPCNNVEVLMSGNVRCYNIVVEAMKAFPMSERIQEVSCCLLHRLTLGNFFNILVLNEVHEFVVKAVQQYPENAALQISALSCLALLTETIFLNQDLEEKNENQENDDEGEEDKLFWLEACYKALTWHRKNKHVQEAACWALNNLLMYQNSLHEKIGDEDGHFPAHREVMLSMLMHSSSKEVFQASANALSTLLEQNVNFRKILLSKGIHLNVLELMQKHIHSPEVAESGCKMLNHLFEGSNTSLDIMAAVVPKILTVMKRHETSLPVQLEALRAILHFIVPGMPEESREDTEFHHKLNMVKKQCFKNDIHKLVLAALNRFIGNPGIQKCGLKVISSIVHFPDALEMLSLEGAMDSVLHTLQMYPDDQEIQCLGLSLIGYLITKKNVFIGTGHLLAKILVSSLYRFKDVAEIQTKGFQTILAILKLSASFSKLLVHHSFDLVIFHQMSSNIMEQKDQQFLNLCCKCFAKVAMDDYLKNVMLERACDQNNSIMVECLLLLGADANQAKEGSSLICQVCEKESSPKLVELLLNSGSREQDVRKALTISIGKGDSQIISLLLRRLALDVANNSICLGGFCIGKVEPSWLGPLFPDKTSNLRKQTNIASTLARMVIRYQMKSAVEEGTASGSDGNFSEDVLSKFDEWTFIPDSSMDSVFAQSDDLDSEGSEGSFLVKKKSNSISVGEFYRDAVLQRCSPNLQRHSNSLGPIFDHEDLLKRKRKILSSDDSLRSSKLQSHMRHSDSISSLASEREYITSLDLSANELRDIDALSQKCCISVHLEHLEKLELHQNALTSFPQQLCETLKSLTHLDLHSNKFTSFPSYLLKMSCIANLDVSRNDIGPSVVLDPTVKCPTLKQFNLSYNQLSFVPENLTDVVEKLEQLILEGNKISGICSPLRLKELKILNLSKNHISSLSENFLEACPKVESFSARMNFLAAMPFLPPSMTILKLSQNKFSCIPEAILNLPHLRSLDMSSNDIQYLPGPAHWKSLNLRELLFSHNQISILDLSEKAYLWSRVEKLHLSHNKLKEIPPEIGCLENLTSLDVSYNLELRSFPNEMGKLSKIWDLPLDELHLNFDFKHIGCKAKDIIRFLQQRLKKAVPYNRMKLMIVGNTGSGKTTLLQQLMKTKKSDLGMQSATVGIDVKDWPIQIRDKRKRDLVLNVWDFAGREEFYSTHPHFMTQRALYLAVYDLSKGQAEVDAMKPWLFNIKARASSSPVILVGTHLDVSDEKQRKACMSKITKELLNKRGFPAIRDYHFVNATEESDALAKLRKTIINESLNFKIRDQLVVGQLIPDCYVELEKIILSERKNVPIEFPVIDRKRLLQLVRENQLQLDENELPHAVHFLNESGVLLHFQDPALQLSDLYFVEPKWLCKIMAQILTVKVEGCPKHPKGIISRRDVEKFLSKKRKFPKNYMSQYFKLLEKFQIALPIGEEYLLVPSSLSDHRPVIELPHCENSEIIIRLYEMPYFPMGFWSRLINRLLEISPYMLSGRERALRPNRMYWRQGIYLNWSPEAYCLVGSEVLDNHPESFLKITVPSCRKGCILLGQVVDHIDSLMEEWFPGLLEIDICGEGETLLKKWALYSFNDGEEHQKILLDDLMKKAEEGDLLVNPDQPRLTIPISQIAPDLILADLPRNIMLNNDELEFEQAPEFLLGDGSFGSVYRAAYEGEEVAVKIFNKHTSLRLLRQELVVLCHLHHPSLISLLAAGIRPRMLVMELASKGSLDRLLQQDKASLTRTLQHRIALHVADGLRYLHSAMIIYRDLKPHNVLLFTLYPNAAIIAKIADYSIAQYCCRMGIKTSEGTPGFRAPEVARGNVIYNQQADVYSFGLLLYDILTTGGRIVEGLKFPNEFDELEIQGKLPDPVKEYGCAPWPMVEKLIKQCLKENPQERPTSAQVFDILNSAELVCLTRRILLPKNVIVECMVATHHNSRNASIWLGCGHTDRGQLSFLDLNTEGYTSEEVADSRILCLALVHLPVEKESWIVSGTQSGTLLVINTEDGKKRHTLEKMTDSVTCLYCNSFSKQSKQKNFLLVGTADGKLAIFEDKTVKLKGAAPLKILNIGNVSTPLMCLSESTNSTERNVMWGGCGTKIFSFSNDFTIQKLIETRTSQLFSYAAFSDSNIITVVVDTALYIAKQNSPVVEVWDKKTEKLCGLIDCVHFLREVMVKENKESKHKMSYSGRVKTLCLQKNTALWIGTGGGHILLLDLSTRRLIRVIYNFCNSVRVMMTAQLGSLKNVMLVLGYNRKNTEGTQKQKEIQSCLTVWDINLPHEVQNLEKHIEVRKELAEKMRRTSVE

IC50 [µM]	Compound
1 to 10	Cc1cc2[nH]nc(C)c2c(NC2CCCCC2)n1 [Example 5]
1 to 10	Cc1n[nH]c2cc(N3CCOCC3)nc(OC3CCCCC3)c12 [Example 3]
1 to 10	Cc1n[nH]c2cc(-c3cnn(C)c3)nc(OC3CCCCC3)c12 [Example 4]
0.1 to 1	Cc1n[nH]c2cncc(-c3ccco3)c12 [Example 8]
0.1 to 1	Cc1cc2[nH]nc(C)c2c(OC2CCCCC2)n1 [Example 6]
0.1 to 1	Cc1cc2[nH]nc(C)c2c(-c2ccco2)n1 [Example 7]
0.1 to 1	Cc1n[nH]c2cc(Cl)nc(NC3CCCCC3)c12 [Example 1]
0.1 to 1	Cc1n[nH]c2cncc(NC3CCCCC3)c12 [Example 9]
0.1 to 1	Cc1n[nH]c2cc(Cl)nc(OC3CCCCC3)c12 [Example 2]
0.1 to 1	Cc1n[nH]c2cncc(OC3CCCCC3)c12 [Example 10]
